Key:
giant foxtail = test: Test C postemergence; format: in vivo, Setaria faberii; settings: Setaria faberi, post-emergence
Procedure, shortened: (§1)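 Rated visually on 0–100 (100 = complete control) after 13–15 days under glass. Treatments went onto freshly seeded loam/sand soil or onto emerged plants at the 1- to 4-leaf stage, using a surfactant-containing solvent formulation.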

ragweed [1] = test: Test A preemergence; format: in vivo, Ambrosia elatior; settings: 0 to 100 scale where 0 is no effect and 100 is complete control
Procedure, shortened: (§2)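 Scoring: eye-based comparison with untreated controls, 0 for no effect through 100 for complete control, at about day 10. Treatments: directed soil spray preemergence; foliar spray postemergence on 2–10 cm plants at the one- to two-leaf stage. Medium: loam soil with sand.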

barnyardgrass = test: Test A postemergence; format: in vivo, Echinochloa crus-galli; settings: 0 to 100 scale where 0 is no effect and 100 is complete control
Procedure, shortened: as §2

wheat, winter [2] = test: Test C postemergence; format: in vivo, Triticum aestivum; settings: Triticum aestivum, post-emergence
Procedure, shortened: as §1

yellow nutsedge [3] = test: Test C preemergence; format: in vivo, Cyperus esculentus; settings: Cyperus, pre-emergence
Procedure, shortened: as §1

johnsongrass [4] = test: Test C preemergence; format: in vivo, Sorghum halepense; settings: Sorghum halepense, pre-emergence
Procedure, shortened: as §1

johnsongrass [5] = test: Test C postemergence; format: in vivo, Sorghum halepense; settings: Sorghum halepense, post-emergence
Procedure, shortened: as §1

corn [6] = test: Test A postemergence; format: in vivo, Zea mays; settings: 0 to 100 scale where 0 is no effect and 100 is complete control
Procedure, shortened: as §2

yellow nutsedge [7] = test: Test C postemergence; format: in vivo, Cyperus esculentus; settings: Cyperus, post-emergence
Procedure, shortened: as §1

large (Lg) crabgrass = test: Test C postemergence; format: in vivo, Digitaria sanguinalis; settings: Digitaria sanguinalis, post-emergence
Procedure, shortened: as §1

corn [8] = test: Test C preemergence; format: in vivo, Zea mays; settings: Zea mays, pre-emergence
Procedure, shortened: as §1

wheat, winter [9] = test: Test C preemergence; format: in vivo, Triticum aestivum; settings: Triticum aestivum, pre-emergence
Procedure, shortened: as §1

corn [10] = test: Test C postemergence; format: in vivo, Zea mays; settings: Zea mays, post-emergence
Procedure, shortened: as §1

Italian ryegrass [11] = test: Test A preemergence; format: in vivo, Lolium multiflorum; settings: 0 to 100 scale where 0 is no effect and 100 is complete control
Procedure, shortened: as §2

Italian ryegrass [12] = test: Test C preemergence; format: in vivo, Lolium multiflorum; settings: Lolium multiflorum, pre-emergence
Procedure, shortened: as §1

ragweed [13] = test: Test A postemergence; format: in vivo, Ambrosia elatior; settings: 0 to 100 scale where 0 is no effect and 100 is complete control
Procedure, shortened: as §2

`N#Cc1cccc(Oc2ncc(Cl)cn2)c1-n1cc(SC(F)(F)F)cn1` [Compound 134, 3-[(5-chloro-2-pyrimidinyl)oxy]-2-[4-(trifluoromethylthio)-1-pyrazolyl]benzonitrile] was tested, and the pest or weed control at 16 g/ha (giant foxtail; 16 g ai/ha, postemergence, 0 is no effect, 100 is complete control, read-out: Plant response rating (0 to 100), Foxtail, Giant) was 5%, the pest or weed control at 125 g/ha (giant foxtail; 125 g ai/ha, postemergence, visual rating, scale 0 to 100 (0 no effect, 100 complete control), read-out: Plant response rating, Foxtail, Giant) was 5% and the pest or weed control at 62 g/ha (giant foxtail; Postemergence, 62 g ai/ha, scale 0 to 100 (0 no effect, 100 complete control), read-out: Plant response rating, Foxtail, Giant) was 5%. The “Plant response rating, Ragweed” value (ragweed [1]; 125 g ai/ha) was 60, the “Ragweed plant response rating” value (ragweed [1]; 500 g ai/ha) was 80 and the “Barnyardgrass plant response rating” value (barnyardgrass; 125 g ai/ha) was 80. For the same compound, the “Plant response rating, Barnyardgrass” value (barnyardgrass; 500 g ai/ha) was 90, the plant injury at 16 g/ha (wheat, winter [2]; 16 g ai/ha, postemergence, 0 is no effect, 100 is complete control, read-out: Plant response rating (0 to 100), Wheat) was 0% and the plant injury at 125 g/ha (wheat, winter [2]; 125 g ai/ha, postemergence, visual rating, scale 0 to 100 (0 no effect, 100 complete control), read-out: Plant response rating, Wheat) was 25%. It also gave a plant injury at 62 g/ha (wheat, winter [2]; Postemergence, 62 g ai/ha, scale 0 to 100 (0 no effect, 100 complete control), read-out: Plant response rating, Wheat) of 5%, a pest or weed control at 16 g/ha (yellow nutsedge [3]; 16 g ai/ha, preemergence, scale 0 to 100 (0 no effect, 100 complete control), read-out: Nutsedge, Yellow plant response rating) of 0% and a pest or weed control at 62 g/ha (yellow nutsedge [3]; 62 g ai/ha, preemergence, scale 0 (no effect) to 100 (complete control), read-out: Nutsedge, Yellow plant response rating) of 0%. It also gave a pest or weed control at 125 g/ha (yellow nutsedge [3]; 125 g ai/ha, preemergence, scale 0 (no effect) to 100 (complete control), read-out: Nutsedge, Yellow plant response rating) of 10%, a pest or weed control at 31 g/ha (yellow nutsedge [3]; Preemergence, 31 g ai/ha, scale 0 to 100, 0 no effect, 100 complete control, read-out: Plant response rating, Nutsedge, Yellow) of 0% and a pest or weed control at 16 g/ha (johnsongrass [4]; 16 g ai/ha, preemergence, scale 0 to 100 (0 no effect, 100 complete control), read-out: Johnsongrass plant response rating) of 20%. It also gave a pest or weed control at 62 g/ha (johnsongrass [4]; 62 g ai/ha, preemergence, scale 0 (no effect) to 100 (complete control), read-out: Johnsongrass plant response rating) of 45%, a pest or weed control at 125 g/ha (johnsongrass [4]; 125 g ai/ha, preemergence, scale 0 (no effect) to 100 (complete control), read-out: Johnsongrass plant response rating) of 85% and a pest or weed control at 31 g/ha (johnsongrass [4]; Preemergence, 31 g ai/ha, scale 0 to 100, 0 no effect, 100 complete control, read-out: Plant response rating, Johnsongrass) of 25%. The pest or weed control at 16 g/ha (johnsongrass [5]; 16 g ai/ha, postemergence, 0 is no effect, 100 is complete control, read-out: Plant response rating (0 to 100), Johnsongrass) was 5%, the pest or weed control at 125 g/ha (johnsongrass [5]; 125 g ai/ha, postemergence, visual rating, scale 0 to 100 (0 no effect, 100 complete control), read-out: Plant response rating, Johnsongrass) was 15% and the pest or weed control at 62 g/ha (johnsongrass [5]; Postemergence, 62 g ai/ha, scale 0 to 100 (0 no effect, 100 complete control), read-out: Plant response rating, Johnsongrass) was 5%. The “Plant response rating, Corn” value (corn [6]; 500 g ai/ha) was 60, the plant injury at 125 g/ha (corn [6]; Zea mays, post-emergence, 240 h, 125 g ai/ha, read-out: Corn plant response rating) was 40% and the pest or weed control at 16 g/ha (yellow nutsedge [7]; 16 g ai/ha, postemergence, 0 is no effect, 100 is complete control, read-out: Plant response rating (0 to 100), Nutsedge, Yellow) was 0%. For the same compound, the pest or weed control at 125 g/ha (yellow nutsedge [7]; 125 g ai/ha, postemergence, visual rating, scale 0 to 100 (0 no effect, 100 complete control), read-out: Plant response rating, Nutsedge, Yellow) was 10%, the pest or weed control at 62 g/ha (yellow nutsedge [7]; Postemergence, 62 g ai/ha, scale 0 to 100 (0 no effect, 100 complete control), read-out: Plant response rating, Nutsedge, Yellow) was 10% and the pest or weed control at 16 g/ha (large (Lg) crabgrass; 16 g ai/ha, postemergence, 0 is no effect, 100 is complete control, read-out: Plant response rating (0 to 100), Crabgrass, Large) was 5%. It also gave a pest or weed control at 125 g/ha (large (Lg) crabgrass; 125 g ai/ha, postemergence, visual rating, scale 0 to 100 (0 no effect, 100 complete control), read-out: Plant response rating, Crabgrass, Large) of 15%, a pest or weed control at 62 g/ha (large (Lg) crabgrass; Postemergence, 62 g ai/ha, scale 0 to 100 (0 no effect, 100 complete control), read-out: Plant response rating, Crabgrass, Large) of 10% and a plant injury at 16 g/ha (corn [8]; 16 g ai/ha, preemergence, scale 0 to 100 (0 no effect, 100 complete control), read-out: Corn plant response rating) of 0%. It also gave a plant injury at 62 g/ha (corn [8]; 62 g ai/ha, preemergence, scale 0 (no effect) to 100 (complete control), read-out: Corn plant response rating) of 40%, a plant injury at 125 g/ha (corn [8]; 125 g ai/ha, preemergence, scale 0 (no effect) to 100 (complete control), read-out: Corn plant response rating) of 40% and a Corn plant response rating (crop injury, 0 = no effect, 100 = complete kill) at 31 g/ha (corn [8]; Preemergence, 31 g ai/ha, scale 0 to 100, 0 no effect, 100 complete control) of 30%. It also gave a plant injury at 16 g/ha (wheat, winter [9]; 16 g ai/ha, preemergence, scale 0 to 100 (0 no effect, 100 complete control), read-out: Wheat plant response rating) of 0%, a plant injury at 62 g/ha (wheat, winter [9]; 62 g ai/ha, preemergence, scale 0 (no effect) to 100 (complete control), read-out: Wheat plant response rating) of 0% and a plant injury at 125 g/ha (wheat, winter [9]; 125 g ai/ha, preemergence, scale 0 (no effect) to 100 (complete control), read-out: Wheat plant response rating) of 15%. It also gave a plant injury at 31 g/ha (wheat, winter [9]; Preemergence, 31 g ai/ha, scale 0 to 100, 0 no effect, 100 complete control, read-out: Plant response rating, Wheat) of 0%, a plant injury at 16 g/ha (corn [10]; 16 g ai/ha, postemergence, 0 is no effect, 100 is complete control, read-out: Plant response rating (0 to 100), Corn) of 5% and a Corn plant response rating (crop injury, 0 = no effect, 100 = complete kill) at 125 g/ha (corn [10]; 125 g ai/ha, postemergence, visual rating, scale 0 to 100 (0 no effect, 100 complete control)) of 5%. For the same compound, the Corn plant response rating (crop injury, 0 = no effect, 100 = complete kill) at 62 g/ha (corn [10]; Postemergence, 62 g ai/ha, scale 0 to 100 (0 no effect, 100 complete control)) was 10%, the “Plant response rating, Ryegrass, Italian” value (Italian ryegrass [11]; 125 g ai/ha) was 20 and the “Ryegrass, Italian plant response rating” value (Italian ryegrass [11]; 500 g ai/ha) was 40. The pest or weed control at 16 g/ha (Italian ryegrass [12]; 16 g ai/ha, preemergence, scale 0 to 100 (0 no effect, 100 complete control), read-out: Ryegrass, Italian plant response rating) was 0%, the pest or weed control at 62 g/ha (Italian ryegrass [12]; 62 g ai/ha, preemergence, scale 0 (no effect) to 100 (complete control), read-out: Ryegrass, Italian plant response rating) was 15% and the pest or weed control at 125 g/ha (Italian ryegrass [12]; 125 g ai/ha, preemergence, scale 0 (no effect) to 100 (complete control), read-out: Ryegrass, Italian plant response rating) was 70%. For the same compound, the pest or weed control at 31 g/ha (Italian ryegrass [12]; Preemergence, 31 g ai/ha, scale 0 to 100, 0 no effect, 100 complete control, read-out: Plant response rating, Ryegrass, Italian) was 5%, the “Ragweed plant response rating” value (ragweed [13]; 125 g ai/ha) was 50 and the “Plant response rating, Ragweed” value (ragweed [13]; 500 g ai/ha) was 60.
